Source: patent US20090238852A1, “METHODS FOR CONTROLLING INTRACELLULAR CALCIUM LEVELS ASSOCIATED WITH AN ISCHEMIC EVENT” (University of Utah Research Foundation, priority 2008, published 2009)

Columns and labels:
anti-Xa = settings: product of the procedure of U.S. Pat. No. 5,990,097; cited from earlier work
[1] = tested on: rabbit ventricular myocytes; experiment: [Na^+]i in paced myocytes exposed to ATX, no metabolic inhibition; type: cell-based; settings: FIG. 9
Protocol: In these studies, intracellular calcium concentration [Ca^++]i was measured by flow cytometry. Measurement of isolated mouse and rabbit ventricular myocyte [Ca^2+]i and [Na^+]i by flow cytometry has been described (Zhang et al., J. Cardiovasc. Pharmacol. 51: 443-449 (2008); Li et al., J. Mol. Cell. Cardiol. 33: 2145-2155 (2001)). [Ca^++]i was measured with the Ca^++ sensitive fluorescent probe, Fluo 3-AM (Molecular Probes, Eugene, Oreg.), using a FACScan (Becton-Dickinson, MA). The cells were exposed to 4 μmol/L Fluo-3 AM for 30 min at 37° C. The cells were then separated into aliquots. […] Metabolic ischemia was accomplished by incubating cells in a glucose-free MKRBB solution (pH 7.40) containing 2 mmol/L sodium cyanide (NaCN) to impair mitochondrial and glycolytic generation of ATP. To reproduce the situation in the beating ischemic heart, during the period of metabolic ischemia, myocytes were placed in a 5-well chamber with equal volumes of myocyte suspensions from the same heart dissociation placed in each well. The chamber was water bathed to maintain temperature at 37° C. and bubbled with 5% CO2 in air to keep myocytes in suspension. Each well was fitted with platinum sheet electrodes on both sides for field stimulation. One chamber was constructed with a glass coverslip bottom so that myocytes can be observed microscopically to assess capture threshold. Placing electrodes were connected in series to a constant current pulse generator that delivers a 0.2 ampere pulse at 0.5 Hz. […] Approximately 2×10^3 myocytes were analyzed to calculate average emission fluorescence intensity in each sample. […] Only those cells with low fluorescence intensity at 670 nm (PI-negative cells or viable cells) were included in the comparative analysis of [Ca^++]i. The sample [Ca^2+]i values were calculated by Mn^2+ quenching (Sugishita et al, 2001) and [Na^+]i values by comparison with a standard curve of varied [Na^+]i versus Na Green fluorescence. […] Results were expressed as means±SEM. […]

2-O, 3-O desulfated heparin [ODSH]
anti-Xa anti-coagulant activity (anti-Xa): less than 10 U/mg
effect on ATX-induced increase in [Na^+]i ([1]; ODSH 100 ug/ml with ATX 10 nM): almost completely inhibited
effect on [Na^+]i in the absence of ATX ([1]; ODSH 100 ug/ml, HEPES + pacing alone): reduced [Na^+]i in myocytes in the absence of ATX but to a much smaller extent
